Experimental data reported in ChEMBL document CHEMBL4257466, “The use of matched molecular series networks for cross target structure activity relationship translation and potency prediction” (Medchemcomm, 2017).
pIC50: −log10 of the molar value.

Target: RNA-directed RNA polymerase (Hepacivirus hominis, UniProt O39930)
Assay: Inhibition of HCV RNA polymerase

Chain of RNA-directed RNA polymerase (O39930 whole entry): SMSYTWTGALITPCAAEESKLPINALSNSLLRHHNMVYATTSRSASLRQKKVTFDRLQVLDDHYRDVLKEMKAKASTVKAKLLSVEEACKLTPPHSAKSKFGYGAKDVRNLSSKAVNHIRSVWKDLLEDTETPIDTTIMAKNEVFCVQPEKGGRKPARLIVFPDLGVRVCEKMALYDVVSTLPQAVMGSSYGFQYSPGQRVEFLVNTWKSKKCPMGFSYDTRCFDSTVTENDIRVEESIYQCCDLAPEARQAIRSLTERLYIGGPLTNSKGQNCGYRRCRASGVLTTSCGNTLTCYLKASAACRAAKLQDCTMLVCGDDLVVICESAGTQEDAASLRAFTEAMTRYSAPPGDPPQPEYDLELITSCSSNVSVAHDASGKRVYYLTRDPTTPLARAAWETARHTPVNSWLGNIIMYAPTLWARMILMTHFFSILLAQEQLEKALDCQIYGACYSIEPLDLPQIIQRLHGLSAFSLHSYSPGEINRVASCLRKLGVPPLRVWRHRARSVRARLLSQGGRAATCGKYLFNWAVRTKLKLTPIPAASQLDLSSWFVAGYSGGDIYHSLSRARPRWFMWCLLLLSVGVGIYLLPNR

Row | Compound | pIC50
1 | CNC(=O)c1c(-c2ccc(F)cc2)oc2nc(CNS(C)(=O)=O)c(C3CC3)cc12 | 6.30
2 | CNC(=O)c1c(-c2ccc(F)cc2)oc2nc(CNC(=O)COC)c(C3CC3)cc12 | 5.50
3 | CNC(=O)c1c(-c2ccc(F)cc2)oc2nc(CNC(=O)C3CCOC3)c(C3CC3)cc12 (stereo not given) | 5.60
4 | CNC(=O)c1c(-c2ccc(F)cc2)oc2nc(CN)c(C3CC3)cc12 | 5.20
5 | CNC(=O)c1c(-c2ccc(F)cc2)oc2nc(CNC(C)=O)c(C3CC3)cc12 | 6.20
